Test results reported in patent US7166296B2, “Pharmaceutical formulations and ligands for use therein; mimetics for UEA-1” (Sarlan, Ltd., priority 2001, dated 2007).

What was measured:
Set-up in all cases: species or system human
[1] = test system: UEA-1 binding sites on Caco-2 cell membrane preparations; assay: Single tier competition assay: inhibition of biotinylated UEA-1 binding, compound and biotinylated UEA-1 incubated together; conditions: library MSI 27; for IC50: read-out: Single Tier Assay IC50
Outline: (§1)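 Plates coated with Caco-2 membrane preparation (10 μg/ml, carbonate buffer pH 9.6) and BSA-blocked. Single tier: compound and biotinylated UEA-1 incubated together overnight. Two tier: compound incubated overnight with membranes first, biotinylated UEA-1 added next. Bound UEA-1 detected by streptavidin-HRP/OPD, OD490.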

[2] = test system: UEA-1 binding sites on Caco-2 cell membrane preparations; assay: Competition assay of biotinylated UEA-1 binding, tier (single/two) not given; conditions: tier not printed, library TPI 1066
Description: The epithelial cell binding ability of compounds and mixtures obtained from synthetic combinatorial libraries was determined by competition assays. These assays were set up to measure the inhibition of binding of biotinylated UEA-1 to membrane preparations of the epithelial cell line Caco-2 (colon carcinoma cells-2), by compounds and mixtures of the combinatorial libraries. This cell line is a conventional model for epithelial cells.
Two competition inhibition assays were used in this case, namely single tier and two tier assays. These assays differed from each other in that in the single tier assay, the mixtures/compounds and the biotinylated UEA-1 were incubated together with the Caco-2 cell membrane preparations, while in case of the two-tier assay, the mixture/compounds were allowed to incubate alone with the cell membranes in the absence of biotinylated UEA-1, which was added in the next step. Addition of the extra step in the two-tier assay was to ensure that the compounds inhibiting the binding of biotinylated UEA-1 to the Caco-2 cell membranes were doing so by themselves binding to surface receptors on the Caco-2 cells and not to the biotinylated UEA-1. Each assay will be described in detail.
• 1. Confluent Caco-2 cell monolayers (grown in 75 cm^2 flasks for up to 1 week at 37° C. and 5% CO2) were washed twice in Dulbecco's PBS (DPBS). • 2. Cell monolayers were treated with 10 mM EDTA-DPBS for 5–10 min at 37° C. and cells were harvested by centrifugation at 1000 rpm for 5 min. • 3. Cells were washed 3 times in DPBS. • 4. […] The cells were homogenised for 30 sec. • 6. The homogenates were centrifuged in hard walled tubes at 40,000 rpm for 45 min at 4° C. • 7. […] The supernatant was removed and stored on ice. The procedure was repeated adding the second supernatant to the first. • 8. The protein concentration was determined using e.g. a Bio-Rad protein assay. • 9. All fractions were stored at −80° C. prior to use. Single Tier Assays: • 1. 96-well microtiter plates were coated with membrane preparations of Caco-2 cells either by allowing them to incubate on the plates for 2½ hours at room temperature or by incubating them overnight at 4° C. 100 μl of 10 μg/ml (in 0.05 M carbonate buffer, pH 9.6) of membrane preparation was added to each well. • 2. The plates were flicked out, patted dry and blocked with bovine serum albumin (BSA)/DPBS (200 μl/well) for 1 to 4 hours at room temperature after which they were washed three times in water. • 3. […] Control wells were also set up in which the Caco-2 cell membrane preparations were incubated with unconjugated UEA-1. […] Following overnight incubation the plates were washed thoroughly (3–6 times). The plates were flicked out, patted dry and biotinylated UEA-1 was detected with commercial Streptavidin conjugated to horseradish peroxidase (HRP) (CalBiochem). […] The plates were left to incubate for an hour at room temperature. • 6. The plates were then washed 3–6 times and the biotin-streptavidin binding was detected by adding an HRP substrate OPD (orthophenyl diamine) to each well. 100 μl/well of this substrate at a final concentration of 1.6 mg/ml was added to each well. Before adding to the wells, this substrate was activated by addition of 50 μl of 3% H2O2 per plate and the reaction was allowed to develop in the dark. • 7. The reaction was stopped by adding 50 μl of 4 N H2SO4 to each well after approximately 5–10 minutes or when sufficient colour had developed. The OD490 (absorbance at 490 nm) of each well was measured using a conventional 96 well plate reading spectrophotometer. Two Tier Assays: • 1. 96 well plates were coated with Caco-2 cell membrane preparations in the same manner as described in the single tier assay. • 2. […] 100 μl at these final concentrations were added to each well. • 4. The plates were then left to incubate overnight, a step that would allow the mixtures and compounds to interact with the Caco-2 cell membranes without the presence of the competitor (biotinylated UEA-1) itself. • 5. […]

[3] = test system: UEA-1 binding sites on Caco-2 cell membrane preparations; assay: Two tier competition assay: compound incubated alone with membranes, biotinylated UEA-1 added in next step; conditions: library MSI 27; for IC50: read-out: Two Tier Assay IC50
Outline: as §1

[4] = 50 μg/ml, first pair of columns
[5] = 50 μg/ml, second pair of columns
[6] = 250 μg/ml, first pair of columns
[7] = 250 μg/ml, second pair of columns

Single Tier Assay IC50 [1] [µg/mL] | IC50 [1] [µM] | IC50 [3] [µM] | SMILES | Av % Inhibition [2, 4] [%] | Av % Inhibition [2, 5] [%] | Av % Inhibition [2, 6] [%] | Av % Inhibition [2, 7] [%] | Two Tier Assay IC50 [3] [µg/mL]
168.10 | 333 | 259 | CCOC(=O)c1c(OC)cc(C(=O)O)cc1OC [compound 5, 4-ethoxycarbonyl-3,5-dimethoxybenzoic acid] | 16 | 39 | 54 | 51 | 130.70
– | 307 | 307 | COc1cc(C(=O)O)cc(OC)c1O [compound 25, Syringic acid] | −173 | 65 | 66 | 63 | –

Second part, the compound before the results:

SMILES | Single Tier Assay IC50 [1] [µg/mL] | IC50 [1] [µM] | IC50 [3] [µM] | Av % Inhibition [2, 4] [%] | Av % Inhibition [2, 5] [%] | Av % Inhibition [2, 6] [%] | Av % Inhibition [2, 7] [%] | Two Tier Assay IC50 [3] [µg/mL]
O=C(O)c1cc(O)cc(O)c1 [compound 8, 3,5-dihydroxybenzoic acid] | 125.00 | 299 | 412 | 59 | 0 | 85 | 50 | 171.90
COc1ccc(C(=O)O)cc1OC [compound 10, 3,4-Dimethoxybenzoic acid] | – | 711 | 356 | −65 | 24 | 41 | 66 | 125.00
COc1cc(C(=O)O)cc(OC)c1OC [compound 20, 3,4,5-trimethoxybenzoic acid] | – | 212 | 212 | −121 | 52 | 24 | 75 | –
O=C(O)c1ccc(O)cc1 [compound 23, 4-Hydroxybenzoic acid] | – | 284 | 284 | 52 | 39 | 21 | 59 | –
COc1ccc(C(=O)O)cc1OC [compound 26, 3,4-Dimethoxybenzoic acid] | 125.00 | 163 | 112 | −116 | 39 | −2 | 56 | 85.62
